# Laboratory results from patent US7888510B2, “2-′4(phenylamino)-piperidin-1-yl!-n-phenyl-acetamine derivatives and related compounds as neuropeptide Y5 (NPY5) ligands for the treatment of obesity” (Laboratorios del Dr. Esteve S.A., priority 2003, dated 2011).
# Where a name gives a salt, the structure may show the parent alone.
# Target: T1, rat Y5 receptor (Rattus norvegicus, UniProt Q63634)
# T1 construct: expressed in transfected cells; host or cells: C6 cells (membrane preparation)
# T1 sequence (Q63634 1-445): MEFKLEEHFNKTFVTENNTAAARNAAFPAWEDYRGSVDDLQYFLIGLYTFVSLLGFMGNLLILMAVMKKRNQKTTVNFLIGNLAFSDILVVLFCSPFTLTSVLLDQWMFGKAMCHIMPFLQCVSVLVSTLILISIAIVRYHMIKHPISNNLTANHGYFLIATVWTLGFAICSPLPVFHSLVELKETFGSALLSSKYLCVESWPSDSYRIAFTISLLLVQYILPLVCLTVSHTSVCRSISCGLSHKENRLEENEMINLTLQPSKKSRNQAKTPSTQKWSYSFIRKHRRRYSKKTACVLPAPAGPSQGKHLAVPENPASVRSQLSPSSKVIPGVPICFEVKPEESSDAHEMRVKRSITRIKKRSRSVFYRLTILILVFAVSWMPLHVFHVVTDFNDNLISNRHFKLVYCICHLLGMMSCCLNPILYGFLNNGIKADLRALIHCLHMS
# Assay: Neuropeptide Y5 receptor binding ([125I]-PYY displacement, membranes of transfected C6 cells)
# Conditions: 10^−6 M; membranes of C6 cells transfected with the rat Y5 receptor; radioligand [125I]-PYY 100 pM
# Experimental: Neuropeptide Y5 Receptor Binding Studies:
# The methods used for membrane preparation and binding are similar to those described by Y. Hu, B. T. Bloomquist et al. in Y. Hu, B. T. Bloomquist et al., The Journal of Biological Chemistry, 1996, 271, 26315-26319 with modifications. Said literature description is herewith incorporated by reference and forms part of the disclosure. Cells C6 were transfected with the rat Y5 receptor. The cells were grown under standard culture conditions in 150 cm^2 dishes and they were harvested using a rubber scraper and 10 ml PBS. The cells from five dishes were collected and centrifuged 2.500 g for 5 min (4° C.). The pellet was washed by resuspending in 3 ml buffer (Tris-HCl 10 mM, pH 7.4), homogenized using a Potter S homogenizer, 10 strokes at 600 rpm and centrifuged 48.000 g for 20 min (4° C.). The pellet was resuspended in 8 ml membrane buffer (Tris-HCl 25 mM, NaCl 120 mM, KCl 5 mM, KH2PO4 1.2 mM, CaCl2 2.5 mM, MgSO4 1.2 mM, BSA 0.15 mg/ml, Bacitracine 0.5 mg/ml, pH 7.4) and rehomogenized using the Potter S, 10 strokes at 600 rpm. The protein concentration in the incubation was […]. The radioligand was [^125I]-PYY (100 pM) in a total incubation volume of 200 μl. Following incubation at 25° C. for 2 h, the reaction was stopped by addition of 5 ml ice-cold buffer (Tris-HCl 25 mM, NaCl 120 mM, KCl 5 mM, KH2PO4 1.2 mM, CaCl2 2.5 mM, MgSO4 1.2 mM, pH 7.4) and rapid filtration in a Harvester Brandell Cell using filters (Schleicher & Schuell GF 3362) pretreated for two hours with 0.5% polyethyleneimine. Filters were washed one time with 5 ml ice-cold buffer. The filters were placed into plastic scintilation vials and 5 ml scintilation cocktail Ecoscint H were added. The quantity of radioactivity present was determined in a Wallac Winspectral 1414 counter. Non specific binding was determined in the presence of 1 μM de pNPY. All binding assays were done in triplicate.
row,inhibition at 1 µM [%],Compound
1,86.2,"Cc1ccc(NC2CCN(CC(=O)Nc3cnc4ccccc4c3)CC2)c(CO)c1 [Example 5, 2-[4-(2-Hydroxymethyl-4-methyl-phenylamino)-piperidin-1-yl]-N-quinolin-3-yl-acetamide]"
2,82.3,"Cc1ccc(NC2CCN(CC(=O)Nc3ccc4ncccc4c3)CC2)c(CO)c1 [Example 7, 2-[4-(2-Hydroxymethyl-4-methyl-phenylamino)-piperidin-1-yl]-N-quinolin-6-yl-acetamide]"
3,80.4,"Cc1cccc(CO)c1NC1CCN(CC(=O)Nc2cnc3ccccc3c2)CC1 [Example 9, 2-[4-(2-Hydroxymethyl-6-methyl-phenylamino)-piperidin-1-yl]-N-quinolin-3-yl-acetamide]"
4,73.9,"Cc1cccc(CO)c1NC1CCN(CC(=O)Nc2ccc3ncccc3c2)CC1 [Example 11, 2-[4-(2-Hydroxymethyl-6-methyl-phenylamino)-piperidin-1-yl]-N-quinolin-6-yl-acetamide]"
5,81.5,"O=C(CN1CCC(Nc2ccccc2CO)CC1)Nc1ccc(C(=O)c2ccccc2)cc1 [Example 13, N-(4-Benzoyl-phenyl)-2-[4-(2-hydroxymethyl-phenylamino)-piperidin-1-yl]-acetamide]"
6,88.9,"Cc1ccc(NC2CCN(CC(=O)Nc3ccc(C(=O)c4ccccc4)cc3)CC2)c(CO)c1 [Example 14, N-(4-Benzoyl-phenyl)-2-[4-(2-hydroxymethyl-4-methyl-phenylamino)-piperidin-1-yl]-acetamide]"
7,93.2,"Cc1cccc(CO)c1NC1CCN(CC(=O)Nc2ccc(C(=O)c3ccccc3)cc2)CC1 [Example 15, N-(4-Benzoyl-phenyl)-2-[4-(2-hydroxymethyl-6-methyl-phenylamino)-piperidin-1-yl]-acetamide]"

# Same assay, conditions: membranes of C6 cells transfected with the rat Y5 receptor; radioligand [125I]-PYY 100 pM; 25° C., 2 h
row,IC50 [nM],Compound
1,50,"CCn1c2ccccc2c2cc(NC(=O)CN3CCC(Nc4c(C)cccc4CO)CC3)ccc21 [Example 1a, N-(9-Ethyl-9H-carbazol-3-yl)-2-[4-(2-hydroxymethyl-6-methyl-phenylamino)-piperidin-yl]acetamide dihydrochloride]"
2,80.9,"Cc1ccc(NC2CCN(CC(=O)Nc3ccc4c(c3)-c3ccccc3C4=O)CC2)c(CO)c1 [Example 2a, 2-[4-(2-Hydroxymethyl-4-methyl-phenylamino)-piperidin-1-yl]-N-(9-oxo-9H-fluoren-3-yl)-acetamide]"
3,36.3,"Cc1cccc(CO)c1NC1CCN(CC(=O)Nc2ccc3c(c2)-c2ccccc2C3=O)CC1 [Example 3a, 2-[4-(2-Hydroxymethyl-6-methyl-phenylamino)-piperidin-1-yl]-N-(9-oxo-9H-fluoren-3-yl)-acetamide]"
4,40.1,"Cc1cccc(CO)c1NC1CCN(CC(=O)Nc2ccc3c(c2)-c2ccccc2C3O)CC1 (stereo not drawn) [Example 5a, N-(9-Hydroxy-9H-fluoren-3-yl)-2-[4-(2-hydroxymethyl-6-methyl-phenylamino)-piperidin-1-yl]-acetamide]"

# Test system: not given
# Assay: not given
# Conditions: not given
row,melting point [°C],Compound
1,258,COC(=O)c1ccccc1NC1CCN(CC(=O)Nc2ccc3c(c2)-c2ccccc2C3=O)CC1.Cl
2,138 to 140,O=C(CN1CCC(Nc2ccccc2CO)CC1)Nc1ccc2c(c1)CCC2=O
3,152,"Cc1ccc(NC2CCN(CC(=O)Nc3ccc4c(c3)-c3ccccc3C4=O)CC2)c(CO)c1 [Example 2a, 2-[4-(2-Hydroxymethyl-4-methyl-phenylamino)-piperidin-1-yl]-N-(9-oxo-9H-fluoren-3-yl)-acetamide]"
4,113,"Cc1cccc(CO)c1NC1CCN(CC(=O)Nc2ccc3c(c2)-c2ccccc2C3=O)CC1 [Example 3a, 2-[4-(2-Hydroxymethyl-6-methyl-phenylamino)-piperidin-1-yl]-N-(9-oxo-9H-fluoren-3-yl)-acetamide]"
5,124,"Cc1ccc(NC2CCN(CC(=O)Nc3ccc4c(c3)-c3ccccc3C4O)CC2)c(CO)c1 (stereo not drawn) [Example 4a, N-(9-Hydroxy-9H-fluoren-3-yl)-2-[4-(2-hydroxymethyl-4-methyl-phenylamino)-piperidin-1-yl]-acetamide]"
6,133,"Cc1cccc(CO)c1NC1CCN(CC(=O)Nc2ccc3c(c2)-c2ccccc2C3O)CC1 (stereo not drawn) [Example 5a, N-(9-Hydroxy-9H-fluoren-3-yl)-2-[4-(2-hydroxymethyl-6-methyl-phenylamino)-piperidin-1-yl]-acetamide]"
7,128,"Cc1ccc(NC2CCN(CC(=O)Nc3ccccc3)CC2)c(CO)c1 [Example 7a, 2-[4-(2-Hydroxymethyl-4-methyl-phenylamino)-piperidin-1-yl]-N-phenyl-acetamide]"
